Data: ChEMBL document CHEMBL6182949 (J Med Chem, 2025)

Experiments:
[1] = biological target: T1, Protein cereblon/Interleukin-1 receptor-associated kinase 4 (Homo sapiens, UniProt Q9NWZ3+Q96SW2); assay: PROTAC activity at CRBN/IRAK4 in human THP-1 cells assessed as induction of IRAK4 degradation incubated for 24 hrs by HiBiT lytic reagent based analysis; type: cell-based
Target sequence in this assay (Q9NWZ3 whole entry): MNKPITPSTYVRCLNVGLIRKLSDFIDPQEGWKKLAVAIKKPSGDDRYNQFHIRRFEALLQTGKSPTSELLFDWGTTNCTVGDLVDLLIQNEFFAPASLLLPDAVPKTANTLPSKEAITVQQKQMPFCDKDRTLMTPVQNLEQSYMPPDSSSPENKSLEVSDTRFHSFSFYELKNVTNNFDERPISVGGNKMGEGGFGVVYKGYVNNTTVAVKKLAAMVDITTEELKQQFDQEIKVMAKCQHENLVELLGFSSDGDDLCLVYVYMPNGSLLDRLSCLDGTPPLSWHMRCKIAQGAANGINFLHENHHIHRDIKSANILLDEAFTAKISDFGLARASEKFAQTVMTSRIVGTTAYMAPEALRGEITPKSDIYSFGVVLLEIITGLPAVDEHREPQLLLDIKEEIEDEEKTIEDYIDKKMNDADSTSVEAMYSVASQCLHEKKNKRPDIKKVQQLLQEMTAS
Target sequence in this assay (Q96SW2 whole entry): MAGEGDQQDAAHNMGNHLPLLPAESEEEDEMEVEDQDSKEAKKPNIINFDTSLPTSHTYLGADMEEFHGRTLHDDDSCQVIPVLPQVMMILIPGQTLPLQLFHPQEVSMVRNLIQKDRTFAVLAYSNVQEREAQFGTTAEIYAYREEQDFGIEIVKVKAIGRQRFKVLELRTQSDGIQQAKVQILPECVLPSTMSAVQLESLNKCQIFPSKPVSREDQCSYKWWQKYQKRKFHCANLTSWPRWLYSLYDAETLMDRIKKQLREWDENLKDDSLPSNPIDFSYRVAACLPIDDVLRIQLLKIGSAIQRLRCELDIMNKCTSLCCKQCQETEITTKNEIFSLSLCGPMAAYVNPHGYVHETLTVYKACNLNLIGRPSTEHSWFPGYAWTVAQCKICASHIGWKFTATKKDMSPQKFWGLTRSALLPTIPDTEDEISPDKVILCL

[2] = biological target: T1, Protein cereblon/Interleukin-1 receptor-associated kinase 4; assay: PROTAC activity at CRBN/IRAK4 in human THP-1 cells assessed as induction of IRAK4 degradation incubated for 24 hrs by HiBiT lytic reagent based analysis relative to control; type: cell-based
Target sequence in this assay (Q96SW2 whole entry, looked up): as the sequence (Q96SW2 whole entry) above
Target sequence in this assay (Q9NWZ3 whole entry, looked up): as the sequence (Q9NWZ3 whole entry) above

[3] = Metabolic stability in human liver microsome assessed as half life at 1 uM measured up to 60 mins in presence of NADPH by LC-MS/MS analysis; type: ADME; settings: liver microsomes
[4] = Metabolic stability in dog liver microsome assessed as half life at 1 uM measured up to 60 mins in presence of NADPH by LC-MS/MS analysis; type: ADME, Canis lupus familiaris; settings: liver microsomes
[5] = Metabolic stability in mouse liver microsome assessed as half life at 1 uM measured up to 60 mins in presence of NADPH by LC-MS/MS analysis; type: ADME; settings: liver microsomes
[6] = biological target: T2, hERG (KCNH2) (Homo sapiens, UniProt Q12809); assay: Inhibition of hERG expressed in HEK293 cells at 1 uM by manual patch clamp assay relative to control; type: toxicity, cell-based; settings: HEK293 cells expressing hERG
T2 sequence (Q12809 whole entry): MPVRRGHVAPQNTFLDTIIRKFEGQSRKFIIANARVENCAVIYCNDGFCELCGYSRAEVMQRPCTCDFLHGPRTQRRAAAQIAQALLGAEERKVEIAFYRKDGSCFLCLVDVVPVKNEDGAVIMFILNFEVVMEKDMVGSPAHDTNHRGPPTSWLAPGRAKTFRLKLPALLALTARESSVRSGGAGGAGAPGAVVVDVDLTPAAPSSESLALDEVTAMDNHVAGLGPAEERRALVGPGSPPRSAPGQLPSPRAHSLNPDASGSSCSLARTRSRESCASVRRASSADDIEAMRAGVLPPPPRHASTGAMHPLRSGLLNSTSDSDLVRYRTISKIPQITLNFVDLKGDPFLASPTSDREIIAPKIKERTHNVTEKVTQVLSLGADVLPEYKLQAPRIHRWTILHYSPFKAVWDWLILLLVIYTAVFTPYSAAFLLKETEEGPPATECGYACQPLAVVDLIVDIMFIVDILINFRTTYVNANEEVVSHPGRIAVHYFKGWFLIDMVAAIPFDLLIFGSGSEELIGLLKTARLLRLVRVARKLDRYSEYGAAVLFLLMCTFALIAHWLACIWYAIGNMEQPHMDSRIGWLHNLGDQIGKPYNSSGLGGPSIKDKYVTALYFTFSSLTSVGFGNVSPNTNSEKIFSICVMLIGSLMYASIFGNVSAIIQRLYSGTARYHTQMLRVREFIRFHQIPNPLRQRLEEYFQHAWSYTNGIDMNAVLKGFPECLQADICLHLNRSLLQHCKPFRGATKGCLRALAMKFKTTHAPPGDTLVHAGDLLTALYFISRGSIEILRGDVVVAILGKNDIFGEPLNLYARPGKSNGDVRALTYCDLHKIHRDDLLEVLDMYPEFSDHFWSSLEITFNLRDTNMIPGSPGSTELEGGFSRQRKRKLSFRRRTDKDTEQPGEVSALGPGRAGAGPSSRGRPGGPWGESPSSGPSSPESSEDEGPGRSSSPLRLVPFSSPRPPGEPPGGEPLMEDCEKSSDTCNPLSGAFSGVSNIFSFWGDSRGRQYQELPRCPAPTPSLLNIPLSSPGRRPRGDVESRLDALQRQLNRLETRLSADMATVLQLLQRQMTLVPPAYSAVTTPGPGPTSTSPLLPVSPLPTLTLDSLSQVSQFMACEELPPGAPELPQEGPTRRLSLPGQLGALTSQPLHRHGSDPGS

[7] = Cmax in male C57BL/6 mouse at 2 mg/kg, iv measured up to 24 hrs by LC-MS/MS analysis; type: ADME, organism-based; settings: in vivo
[8] = AUClast in male C57BL/6 mouse at 2 mg/kg, iv measured up to 24 hrs by LC-MS/MS analysis; type: ADME, organism-based; settings: in vivo
[9] = Half life in male C57BL/6 mouse at 2 mg/kg, iv measured up to 24 hrs by LC-MS/MS analysis; type: ADME, organism-based; settings: in vivo
[10] = Clearance in male C57BL/6 mouse at 2 mg/kg, iv measured up to 24 hrs by LC-MS/MS analysis; type: ADME, organism-based; settings: in vivo
[11] = Volume of distribution at steady state in male C57BL/6 mouse at 2 mg/kg, iv measured up to 24 hrs by LC-MS/MS analysis; type: ADME, organism-based; settings: in vivo, read-out: Vdss
[12] = Tmax in male C57BL/6 mouse at 10 mg/kg, po measured up to 24 hrs by LC-MS/MS analysis; type: ADME, organism-based; settings: in vivo
[13] = Cmax in male C57BL/6 mouse at 10 mg/kg, po measured up to 24 hrs by LC-MS/MS analysis; type: ADME, organism-based; settings: in vivo
[14] = AUClast in male C57BL/6 mouse at 10 mg/kg, po measured up to 24 hrs by LC-MS/MS analysis; type: ADME, organism-based; settings: in vivo
[15] = Half life in male C57BL/6 mouse at 10 mg/kg, po measured up to 24 hrs by LC-MS/MS analysis; type: ADME, organism-based; settings: in vivo
[16] = Oral bioavailability in male C57BL/6 mouse at 10 mg/kg measured up to 24 hrs by LC-MS/MS analysis; type: ADME, organism-based; settings: in vivo
[17] = biological target: T2, hERG (KCNH2); assay: Inhibition of hERG expressed in HEK293 cells at 3 uM by manual patch clamp assay relative to control; type: toxicity, cell-based; settings: HEK293 cells expressing hERG
[18] = biological target: Voltage-gated inwardly rectifying potassium channel KCNH2 (Homo sapiens, UniProt Q12809); assay: Inhibition of hERG expressed in HEK293 cells by manual patch clamp assay; type: toxicity, cell-based; set-up: concentration or dose not given beside the values
Sequence of Voltage-gated inwardly rectifying potassium channel KCNH2 (Q12809 whole entry): as above

[19] = Metabolic stability in cynomolgus monkey liver microsome assessed as half life at 1 uM measured up to 60 mins in presence of NADPH by LC-MS/MS analysis; type: ADME, Macaca fascicularis; settings: liver microsomes
[20] = Metabolic stability in rat liver microsome assessed as half life at 1 uM measured up to 60 mins in presence of NADPH by LC-MS/MS analysis; type: ADME; settings: liver microsomes

Work on Cn1c(=O)n(C2CCC(=O)NC2=O)c2cccc(C#CCO[C@H]3CC[C@H](CN4CCC5(CC4)Cc4cc(NC(=O)c6cnc7cccnn67)c(N6CCC(CO)CC6)cc4O5)CC3)c21 (stereo partly specified) yielded a DC50 [1] of 4.06 nM, an Emax [2] of 90% and a half-life at 1 µM [3] greater than 3.07 h. It also gave a half-life at 1 µM [4] greater than 3.07 h, a half-life at 1 µM [5] greater than 3.07 h and an inhibition at 1 µM [6] of 15%. For the same molecule, the Cmax [7] was 1230 ng/mL, the AUC(0-t) at 24 h [8] was 3190 ng·h/mL and the half-life [9] was 9.75 h. The clearance [10] was 9.75 mL/min/kg, the Vd [11] was 1.66 L/kg and the Tmax [12] was 2 h. For the same molecule, the Cmax [13] was 1190 ng/mL, the AUC(0-t) at 24 h [14] was 7390 ng·h/mL and the half-life [15] was 4.4 h. For the same molecule, the bioavailability [16] was 54%.

Cn1c(=O)n(C2CCC(=O)NC2=O)c2cccc(C#CCO[C@H]3CC[C@](F)(CN4CCC5(CC4)Cc4cc(NC(=O)c6cnn7cccnc67)c(N6CCC(CO)CC6)cc4O5)CC3)c21 (stereo partly specified) showed an Emax [2] of 88%, a half-life at 1 µM [3] greater than 3.07 h and a half-life at 1 µM [4] greater than 3.07 h. It also gave a half-life at 1 µM [5] greater than 3.07 h and an inhibition at 3 µM [17] of 8%.

For Cn1c(=O)n(C2CCC(=O)NC2=O)c2cccc(C#CCO[C@H]3CC[C@H](CN4CCC5(CC4)Cc4cc(NC(=O)c6cnn7cccnc67)c(N6CCC(CO)CC6)cc4C5)CC3)c21 (stereo partly specified), the DC50 [1] was 2.77 nM, the Emax [2] was 78% and the inhibition at 3 µM [17] was 46%.

In the case of Cn1c(=O)n(C2CCC(=O)NC2=O)c2cccc(CCCOCCNCCN3CCC4(CC3)Cc3cc(NC(=O)c5cnn6cccnc56)c(N5CCC(CO)CC5)cc3O4)c21 (stereo unspecified), the DC50 [1] is reported as 1.86 nM, the Emax [2] is reported as 68% and the “inhibition (INH)” value [18] is reported as 2%.

Molecule Cn1c(=O)n(C2CCC(=O)NC2=O)c2cccc(C#CCO[C@H]3CC[C@@H](CN4CCC5(CC4)Cc4cc(NC(=O)c6cnn7cccnc67)c(N6CCC(CO)CC6)cc4O5)CC3)c21 (stereo partly specified) has a DC50 [1] of 3.44 nM, an Emax [2] of 89% and a half-life at 1 µM [3] of 0.817 h. The half-life at 1 µM [19] was 0.183 h, the half-life at 1 µM [4] was 0.0167 h and the half-life at 1 µM [20] was 1.47 h. For the same molecule, the half-life at 1 µM [5] was 1.98 h and the inhibition at 1 µM [6] was 34%.

Molecule Cn1c(=O)n(C2CCC(=O)NC2=O)c2cccc(C#CCO[C@H]3CC[C@H](CN4CCC5(CC4)Cc4cc(NC(=O)c6cnn7cc(Cl)cnc67)c(N6CCC(CO)CC6)cc4O5)CC3)c21 (stereo partly specified) has a DC50 [1] of 2.27 nM, an Emax [2] of 87% and a half-life at 1 µM [3] greater than 3.07 h. The half-life at 1 µM [19] was 1.87 h, the half-life at 1 µM [4] was greater than 3.07 h and the half-life at 1 µM [20] was 2.1 h. It also gave a half-life at 1 µM [5] of 1.3 h and an inhibition at 3 µM [17] of 2%.

Cn1c(=O)n(C2CCC(=O)NC2=O)c2cccc(C#CCOC3CCN(CCN4CCC5(CC4)Cc4cc(NC(=O)c6cnn7cccnc67)c(N6CCC(CO)CC6)cc4O5)CC3)c21 (stereo unspecified) gave a DC50 [1] of 2.18 nM, an Emax [2] of 88% and a half-life at 1 µM [3] of 0.383 h. It also gave a half-life at 1 µM [19] of 0.0333 h, a half-life at 1 µM [4] of 1.47 h and a half-life at 1 µM [20] of 1.47 h. For the same molecule, the half-life at 1 µM [5] was greater than 3.07 h.

Cn1c(=O)n(C2CCC(=O)NC2=O)c2cccc(C#CCO[C@H]3CC[C@H](CN4CCC5(CC4)Cc4cc(NC(=O)c6cnn7cc(C#N)cnc67)c(N6CCC(CO)CC6)cc4O5)CC3)c21 (stereo partly specified) gave a DC50 [1] of 2.81 nM, an Emax [2] of 89% and a half-life at 1 µM [3] greater than 3.07 h. For the same molecule, the half-life at 1 µM [19] was 1.07 h, the half-life at 1 µM [4] was greater than 3.07 h and the half-life at 1 µM [20] was 2.45 h. The half-life at 1 µM [5] was 1.98 h and the inhibition at 3 µM [17] was 29%.

With Cn1c(=O)n(C2CCC(=O)NC2=O)c2cccc(CN3CCC(CCN4CCC5(CC4)Cc4cc(NC(=O)c6cnn7cccnc67)c(N6CCC(CO)CC6)cc4O5)CC3)c21 (stereo unspecified) the DC50 [1] was 1.09 nM, the Emax [2] was 92% and the half-life at 1 µM [3] was 0.733 h. The half-life at 1 µM [19] was 0.217 h, the half-life at 1 µM [4] was 1.55 h and the half-life at 1 µM [20] was 0.817 h. For the same molecule, the half-life at 1 µM [5] was 1.1 h and the “inhibition (INH)” value [18] was 28%.
